Measured values: paper PMC10011573, “Development of novel broad-spectrum antimicrobial lipopeptides derived from plantaricin NC8 β” (Scientific Reports, 2023)
Residues, ends and D or L forms follow the SMILES beside them. *: point of attachment. Pentanoyl = CCCCC(=O)*

Columns and labels:
A. baumannii = details: 20 h
E. cloacae = details: 20 h
E. coli (K-12 MG1655) [1] = details: Table 3; K-12 MG1655; broth microdilution, 50:50 PBS/LB-broth, 200 µL, 20 h, 37 °C
E. faecium = details: 20 h
K. pneumoniae = details: 20 h
P. aeruginosa = details: 20 h
[2] = system: S. aureus (ATCC 29213, MSSA); details: ATCC 29213, 20 h
E. coli (K-12 MG1655) [3] = assay type: cell-based; details: K-12, 20 h
Protocol: The broth microdilution method was used to determine minimal inhibitory concentration (MIC) and minimal bactericidal concentration (MBC), in accordance with the EUCAST standards for the broth microdilution method. Two-fold serial dilutions of the lipopeptides were used, and the final concentrations ranged from 0.19 to 100 µM. In brief, two-fold serial dilutions of the lipopeptides were performed in a 96-well plate in PBS, with a final volume of 100 µl per well, after which 100 µl of LB-broth media containing approximately 5 × 10^5 CFU/ml of bacteria was added to each well. The plate was then incubated for 20 h in 37 °C on a shaker (400 rpm). The effect of lipopeptide-antibiotic combinations was investigated by performing checkerboard assays. The assays were performed in accordance with the MIC and MBC tests conducted above, but with horizontal and longitudinal two-fold serial dilutions of the tested compounds. […] The fractional inhibitory concentration (FIC) and fractional bactericidal concentration (FBC) were calculated by the equation (MIC or MBC of peptide in combination/MIC or MBC of peptide alone) + (MIC or MBC of antibiotic in combination/MIC or MBC of antibiotic alone). Synergy was defined as FIC/FBC ≤ 0.5, additive when 0.5 < FIC/FBC ≤ 1, indifferent when 1 < FIC/FBC < 2 and antagonistic when FIC/FBC ≥ 2. All experiments were repeated at least three times.

## CCCCC(=O)N[C@@H](CC(C)C)C(=O)NCC(=O)N[C@H](C(=O)N[C@@H](CCCCN)C(=O)N[C@H](C(=O)N[C@@H](CC(C)C)C(=O)N[C@@H](Cc1c[nH]c2ccccc12)C(=O)N[C@@H](CO)C(=O)N[C@@H](C)C(=O)N[C@@H](Cc1ccc(O)cc1)C(=O)N[C@@H](CCCCN)C(=O)N[C@@H](Cc1c[nH]cn1)C(=O)N[C@@H](CCCNC(=N)N)C(=O)N[C@@H](CCCCN)C(=O)N[C@H](C(=O)N[C@H](C(N)=O)[C@@H](C)CC)[C@@H](C)O)[C@@H](C)CC)[C@@H](C)CC [L-6-C5] (Pentanoyl-LGIKILWSAYKHRKTI-NH2)
A. baumannii
  MBC: 6.3 µM
  MIC: 3.1 µM
E. cloacae
  MBC: > 100 µM
  MIC: > 100 µM
E. coli (K-12 MG1655) [1]
  E. coli MBC: 6.2 µM
  E. coli MIC: 6.2 µM
E. faecium
  MBC: 12.5 µM
  MIC: 6.3 µM
K. pneumoniae
  MBC: 100 µM
  MIC: 50 µM
P. aeruginosa
  MBC: 100 µM
  MIC: 50 µM
[2]
  S. aureus MBC: 6.2 µM
  S. aureus MIC: 6.2 µM
E. coli (K-12 MG1655) [3]
  E. coli MBC, lipopeptide alone: 6.25 µM
  E. coli MIC, lipopeptide alone: 6.25 µM
